According to US3974140A, “Ureidoacetamido-penicillins” (Bayer Aktiengesellschaft, priority 1970, dated 1976):
Where “and” joins values, the source holds several entries; their conditions need not be identical. Equal entries are not always repeated.

Assays:
Assay in all cases: MIC, liquid medium test tube series dilution test
Psdm. aerug. Bonn = format: cell-based, Pseudomonas aerug.; conditions: 24 hours, 37°C
Procedure: (§1) The chemotherapeutic activity of the new penicillins was tested in vivo and in vitro. The in vitro inhibition values (MIC = minimum inhibition concentration (see Tables 1 and 2) were determined in a liquid medium in the test tube series dilution test, with readings being taken after 24 hours' incubation at 37°C. The MIC is indicated by the non-turbid test tube in the dilution series. A complete medium of the following composition was used as the nutrient medium:
(§2) The figures quoted in the Examples for the effectiveness against certain bacteria (units/ml) are minimum inhibitory concentrations in the test tube series dilution test after 24 hours' incubation.

Psdm. aerug. Walter = format: cell-based, Pseudomonas aerug.; conditions: 24 hours, 37°C
Procedure: as §1, §2

Proteus vulg. 1017 = format: cell-based, Proteus vulgaris; conditions: Proteus vulg. 1017, 24 hours, 37°C
Procedure: as §1, §2

Proteus vulg. 3400 = format: cell-based, Proteus vulgaris; conditions: Proteus vulg. 3400, 24 hours, 37°C
Procedure: as §1, §2

Staph. aureus 133 = format: cell-based, Staphylococcus aureus; conditions: Staph. aureus 133, 24 hours, 37°C
Procedure: as §1, §2

E. coli 14 = format: cell-based; conditions: E. coli 14, 24 hours, 37°C
Procedure: as §1, §2

[1] = tested on: Streptoc. faec. ATCC 9790; format: cell-based; conditions: Strep. faec. (Enterococcus) ATCC 9790, 24 hours, 37°C
Procedure: as §1, §2

E. coli A 261 = format: cell-based; conditions: E. coli A 261, 24 hours, 37°C
Procedure: as §1, §2

Klebsiella K 10 = format: cell-based; conditions: Klebsiella K 10, 24 hours, 37°C
Procedure: as §1, §2

E. coli 183/58 = format: cell-based; conditions: E. coli 183/58, 24 hours, 37°C
Procedure: as §1, §2

Klebsiella 63 = format: cell-based; conditions: Klebsiella 63, 24 hours, 37°C
Procedure: as §1, §2

E. coli C 165 = format: cell-based; conditions: E. coli C 165, 24 hours, 37°C
Procedure: as §1, §2

Row | Structure (SMILES) | MIC (Psdm. aerug. Bonn) | MIC (Psdm. aerug. Walter) | MIC (Proteus vulg. 1017) | MIC (Proteus vulg. 3400) | MIC (Staph. aureus 133) | MIC (E. coli 14) | MIC [1] | MIC (E. coli A 261) | MIC (Klebsiella K 10) | MIC (E. coli 183/58) | MIC (Klebsiella 63) | MIC (E. coli C 165)
1 | COC(=O)N(C)C(=O)NC(C(=O)N[C@@H]1C(=O)N2[C@@H]1SC(C)(C)[C@@H]2C(=O)O)c1ccc(OC)cc1 (stereo partly drawn) [Example 18, Sodium D,L-α-(3-methoxycarbonyl-3-methyl-ureido)-4-methoxybenzylpenicillin] | 100-500 units/ml | 100-500 units/ml | 100-500 units/ml | 100-500 units/ml | 0.8-4 units/ml | 4-20 units/ml | ~ 100 units/ml | > 500 units/ml | 20-100 units/ml | 20-100 units/ml | 20-100 units/ml | 20-100 units/ml
2 | CN(C(=O)CCCCl)C(=O)N[C@@H](C(=O)N[C@@H]1C(=O)N2[C@@H]1SC(C)(C)[C@@H]2C(=O)O)c1ccccc1 [Example 24, Sodium D(-)-α-(3-γ-chlorobutyryl-3-methyl-ureido)-benzylpenicillin] | 100 units/ml | 100 units/ml | 100 units/ml | 50 units/ml | ~ 1.6 units/ml | 6.3 units/ml | 200 units/ml | > 400 units/ml | 50 units/ml | 25 units/ml | 100 units/ml | 25 units/ml
3 | CN(C(=O)NC(C(=O)N[C@@H]1C(=O)N2[C@@H]1SC(C)(C)[C@@H]2C(=O)O)c1c(Cl)cccc1Cl)C(=O)c1ccccc1 (stereo partly drawn) [Example 31, Sodium α-(3-benzoyl-3-methyl-ureido)-2,6-dichlorobenzyl-penicillin] | approx. 500 units/ml | 100-500 units/ml | 100-500 units/ml | 100-500 units/ml | 0.8-4 units/ml | 20-100 units/ml | > 500 units/ml | > 500 units/ml | 100-500 units/ml | 20-100 units/ml | 100-500 units/ml | 100-500 units/ml
4 | CN(C(=O)NC(C(=O)N[C@@H]1C(=O)N2[C@@H]1SC(C)(C)[C@@H]2C(=O)O)c1c(Cl)cccc1Cl)C(=O)c1ccccc1 (stereo partly drawn) [Example 32, Sodium α-(3-benzoyl-3-methyl-ureido)-2,6-dichlorobenzyl-penicillin] | 100-500 units/ml | 100-500 units/ml | approx. 100 units/ml | 100-500 units/ml | ~0.8 units/ml | approx. 20 units/ml | 100-500 units/ml | > 500 units/ml | 100-500 units/ml | 20-100 units/ml | approx. 100 units/ml | 20-100 units/ml
5 | CCOC(=O)N(C)C(=O)NC(C(=O)N[C@@H]1C(=O)N2[C@@H]1SC(C)(C)[C@@H]2C(=O)O)c1ccc(SC)cc1 (stereo partly drawn) [Example 35, Sodium α-(3-ethoxycarbonyl-3-methyl-ureido)-4-methylthiobenzylpenicillin] | 4-20 units/ml | approx. 20 units/ml | 20-100 units/ml | 20-100 units/ml | < 0.8 units/ml | approx. 4 units/ml | 20-100 units/ml | 100-500 units/ml | 20-100 units/ml | 4-20 units/ml | 20-100 units/ml | 20-100 units/ml
6 | CN(C(=O)N[C@@H](C(=O)N[C@@H]1C(=O)N2[C@@H]1SC(C)(C)[C@@H]2C(=O)O)c1ccccc1)C(=O)c1cccs1 [Example 37, Sodium D(-)-α-[3-(2-thenoyl)-3-methyl-ureido]-benzylpenicillin] | 4-20 units/ml | 4-20 units/ml | 4-20 units/ml | 4-20 units/ml | < 0.8 units/ml | < 0.8 units/ml | 20-100 units/ml | > 500 units/ml | 20-100 units/ml | 0.8-4 units/ml | 4-20 units/ml | 0.8-4 units/ml
7 | Cc1noc(C)c1C(=O)N(C)C(=O)N[C@@H](C(=O)N[C@@H]1C(=O)N2[C@@H]1SC(C)(C)[C@@H]2C(=O)O)c1ccccc1 [Example 38] | 20-100 units/ml | 20-100 units/ml | 20-100 units/ml | 20-100 units/ml | < 0.8 units/ml | 0.8-4 units/ml | 100-500 units/ml | > 500 units/ml | 20-100 units/ml | 4-20 units/ml | 20-100 units/ml | 4-20 units/ml
8 | Cc1ccc(C(NC(=O)N(C)C(=O)c2ccccc2F)C(=O)N[C@@H]2C(=O)N3[C@@H]2SC(C)(C)[C@@H]3C(=O)O)cc1 (stereo partly drawn) [Example 44, Sodium α-(3-o-fluorobenzoyl-3-methyl-ureido)-α-p-tolyl-methylpenicillin] | 50 units/ml | 50 units/ml | 50 units/ml | 25 units/ml | 1.6 units/ml | 6.25 units/ml | 100 units/ml | 400 units/ml | 50 units/ml | 25 units/ml | 50 units/ml | 25 units/ml
9 | CN(C(=O)CCC(F)(F)F)C(=O)N[C@@H](C(=O)N[C@@H]1C(=O)N2[C@@H]1SC(C)(C)[C@@H]2C(=O)O)c1ccccc1 [Example 69, Sodium D(-)-α-(3-γ-trifluorobutyryl-3-methyl-ureido)-benzylpenicillin] | 12.5 units/ml | 100 units/ml | 12.5 units/ml | 25 units/ml | < 0.78 units/ml | 1.56 units/ml | 100 units/ml | 400 units/ml | 50 units/ml | 3.12 units/ml | 12.5 units/ml and 25 units/ml | 6.25 units/ml
10 | Cc1ccc(C(=O)N(C)C(=O)N[C@@H](C(=O)N[C@@H]2C(=O)N3[C@@H]2SC(C)(C)[C@@H]3C(=O)O)c2ccccc2)cc1[N+](=O)[O-] [Example 70, Sodium D(-)-α-(3-[m-nitro-p-methyl]-benzoyl-3-methyl-ureido)-benzylpenicillin] | 12.5 units/ml | 100 units/ml | 12.5 units/ml | 12.5 units/ml | < 0.78 units/ml | 3.12 units/ml | 100 units/ml | 200 units/ml | 25 units/ml | 3.12 units/ml | 12.5 units/ml | 6.25 units/ml
